In patent US11083198B2, “4H-pyrrolopyridine compound or salt thereof, agricultural and horticultural insecticide comprising the compound or the salt, and method for using the insecticide” (Nihon Nohyaku Co., Ltd., priority 2016, dated 2021):

What was measured:
[1] = system: Plutella xylostella; assay: Insecticidal Test on Plutella xylostella; assay type: in vivo; conditions: 144 h, Chinese cabbage seedlings with laid eggs dipped for about 30 seconds, 25° C., 6 days after the dip treatment, read-out: insecticidal efficacy (corrected mortality rate)
From the text: Insecticidal Test on Plutella xylostella
Adults of Plutella xylostella were released onto Chinese cabbage seedlings and allowed to lay eggs thereon. At 2 days after the release of the adults, the Chinese cabbage seedlings with laid eggs were dipped for about 30 seconds in agrochemical dispersions diluted to 500 ppm, each of which contained a different condensed heterocyclic compound represented by the general formula (1) of the present invention as an active ingredient. After air-dried, the seedlings were kept in a thermostatic chamber at 25° C. At 6 days after the dip treatment, the number of hatched larvae per plot was counted, the mortality rate was calculated according to the formula shown below, and the insecticidal efficacy was evaluated according to the criteria of Test Example 2. This test was conducted in triplicate using 10 adults of Plutella xylostella per plot. Corrected mortality rate(%)=100×(Number of hatched larvae in a non-treatment plot−Number of hatched larvae in a treatment plot)/Number of hatched larvae in a non-treatment plot [Math. 3]

[2] = system: Laodelphax striatellus; assay: Insecticidal Test on Laodelphax striatellus; assay type: in vivo; conditions: 192 h, rice plant seedlings dipped for 30 seconds, 3rd-instar larvae, 8 days after the inoculation, read-out: insecticidal efficacy (corrected mortality rate)
From the text: Insecticidal Test on Laodelphax striatellus
The condensed heterocyclic compounds represented by the general formula (1) of the present invention or salts thereof were separately dispersed in water and diluted to 500 ppm. Rice plant seedlings (variety: Nihonbare) were dipped in the agrochemical dispersions for 30 seconds. After air-dried, each seedling was put into a separate glass test tube and inoculated with ten 3rd-instar larvae of Laodelphax striatellus, and then the glass test tubes were capped with cotton plugs. At 8 days after the inoculation, the numbers of surviving larvae and dead larvae were counted, the corrected mortality rate was calculated according to the formula shown below, and the insecticidal efficacy was evaluated according to the criteria shown below. Corrected mortality rate(%)=100×(Survival rate in a non-treatment plot−Survival rate in a treatment plot)/Survival rate in a non-treatment plot [Math. 2] Corrected Mortality Rate A: the corrected mortality rate is 100%. B: the corrected mortality rate is 90 to 99%. C: the corrected mortality rate is 80 to 89%. D: the corrected mortality rate is 50 to 79%.

## CCn1cc(C(F)(F)F)cc2nc(-c3ncc(-c4cccc(C(F)(F)F)c4)cc3S(=O)(=O)CC)c(F)c1-2 [Compound 1-16, 2-(5-(3-trifluoromethylphenyl)-3-ethylsulfonyl-pyridin-2-yl)-3-fluoro-4-ethyl-6-trifluoromethyl-4H-pyrrolo[3,2-b]pyridine]
[1]
  mortality at 500 ppm: 100%
[2]
  mortality at 500 ppm: 100%

## CCS(=O)(=O)c1cc(-c2cccc(C(F)(F)F)c2)cnc1-c1nc2cc(C(F)(F)F)cn(C)c-2c1Cl [Compound 1-13, 2-(5-(3-trifluoromethylphenyl)-3-ethylsulfonyl-pyridin-2-yl)-3-chloro-4-methyl-6-trifluoromethyl-4H-pyrrolo[3,2-b]pyridine]
[1]
  mortality at 500 ppm: 100%
[2]
  mortality at 500 ppm: 100%

## CCn1cc(C(F)(F)F)cc2nc(-c3nc4cc(Br)ccc4cc3S(=O)(=O)CC)c(F)c1-2 [Compound 2-76, 2-(7-bromo-3-ethylsulfonyl-quinolin-2-yl)-3-fluoro-4-ethyl-6-trifluoromethyl-4H-pyrrolo[3,2-b]pyridine]
[1]
  mortality at 500 ppm: 100%
[2]
  mortality at 500 ppm: 100%

## CCn1cc(C(F)(F)F)cc2nc(-c3nc4cc(Br)ccc4cc3S(=O)(=O)CC)c(Cl)c1-2 [Compound 2-52, 2-(7-bromo-3-ethylsulfonyl-quinolin-2-yl)-3-chloro-4-ethyl-6-trifluoromethyl-4H-pyrrolo[3,2-b]pyridine]
[1]
  mortality at 500 ppm: 100%
[2]
  mortality at 500 ppm: 100%

## CCS(=O)(=O)c1c(-c2nc3cc(C(F)(F)F)cn(C)c-3c2F)nc2cc(C(F)(F)F)ccn12 [Compound 3-14, 2-(3-ethylsulfonyl-7-(trifluoromethyl)imidazo[1,2-a]pyridin-2-yl)-3-fluoro-4-methyl-6-(trifluoromethyl)-4H-pyrrolo[3,2-b]pyridine]
[1]
  mortality at 500 ppm: 100%
[2]
  mortality at 500 ppm: 100%
